Series [1] addresses T1, STS isolated from the human placenta (Homo sapiens, UniProt P08842).
T1 construct: radioisotope enzymatic assay using STS isolated from the human placenta; from tissue; host or cells: human placenta
T1 sequence (P08842 22-583): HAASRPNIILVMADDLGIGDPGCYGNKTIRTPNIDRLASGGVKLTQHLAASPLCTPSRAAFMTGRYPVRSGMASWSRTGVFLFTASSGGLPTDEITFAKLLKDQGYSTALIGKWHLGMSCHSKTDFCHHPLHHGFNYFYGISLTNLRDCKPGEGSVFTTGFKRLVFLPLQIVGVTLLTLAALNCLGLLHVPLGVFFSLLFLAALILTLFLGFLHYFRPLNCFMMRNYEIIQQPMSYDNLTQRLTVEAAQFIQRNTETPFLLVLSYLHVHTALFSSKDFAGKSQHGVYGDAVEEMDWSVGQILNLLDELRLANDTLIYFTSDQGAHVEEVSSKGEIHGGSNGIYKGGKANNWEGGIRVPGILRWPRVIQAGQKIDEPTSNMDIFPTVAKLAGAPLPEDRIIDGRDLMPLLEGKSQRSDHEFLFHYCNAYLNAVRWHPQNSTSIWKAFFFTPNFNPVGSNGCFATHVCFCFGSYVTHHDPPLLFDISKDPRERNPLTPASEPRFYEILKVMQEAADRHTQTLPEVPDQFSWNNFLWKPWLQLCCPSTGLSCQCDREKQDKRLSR
Kind of series: radioisotope enzymatic assay with STS isolated from human placenta and [3H]E1S. The class given is biochemical.
Protocol: The inhibitory potency of the synthesized compounds was examined in two ways, including an enzymatic assay and the radioisotope cellular test. The enzymatic assay was performed using the STS enzyme isolated from human placenta and using radiolabeled [^3H]E1S as a substrate.
The total volume of the reaction mixture was 100 μL. […] After incubation, the reaction mixture (90 μL) was collected from each well, and the product formed by STS hydrolysis was extracted with toluene (0.5 mL). STS activity was measured using a MicroBeta radioluminometer (PerkinElmer). Enzymatic assays were carried out in triplicate.

A further series concerns the target T2, STS in MCF-7 cells (Homo sapiens, UniProt P08842).
T2 construct: The radioisotope cellular assay was performed using the MCF-7 cell line; endogenous in cells; host or cells: MCF-7
T2 sequence (P08842 22-583): T1 sequence (P08842 22-583)
Kind of series: radioisotope cellular assay with [3H]E1S in MCF-7 cells. Format: cell-based.

Series [2] addresses T3, STS activity in murine livers and tumors (Mus musculus, UniProt P50427).
T3 sequence (P50427 23-624): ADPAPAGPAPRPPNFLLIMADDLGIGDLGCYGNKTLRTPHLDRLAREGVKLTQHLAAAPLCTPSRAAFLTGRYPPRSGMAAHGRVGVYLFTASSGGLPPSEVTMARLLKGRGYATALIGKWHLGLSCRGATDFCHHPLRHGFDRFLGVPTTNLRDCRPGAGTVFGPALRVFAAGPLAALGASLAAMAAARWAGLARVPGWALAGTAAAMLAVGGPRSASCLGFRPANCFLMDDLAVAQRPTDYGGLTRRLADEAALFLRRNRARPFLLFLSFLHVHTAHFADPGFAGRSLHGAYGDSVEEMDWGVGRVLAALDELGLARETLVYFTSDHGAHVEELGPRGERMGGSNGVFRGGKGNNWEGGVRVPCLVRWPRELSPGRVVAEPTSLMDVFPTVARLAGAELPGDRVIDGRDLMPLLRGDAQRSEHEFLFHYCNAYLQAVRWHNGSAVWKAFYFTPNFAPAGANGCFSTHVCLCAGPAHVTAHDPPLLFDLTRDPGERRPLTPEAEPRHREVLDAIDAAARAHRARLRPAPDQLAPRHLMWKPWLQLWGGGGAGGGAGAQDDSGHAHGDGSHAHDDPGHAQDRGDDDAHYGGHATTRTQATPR
Kind of series: determination of STS activity in murine livers and tumors of treated mice.
Protocol: Then, the samples were subjected to sonication in five cycles of 10 s each and centrifuged for 10 min at 14 000g to pellet the tissue debris. Total protein concentrations were determined in the obtained lysates using the Bradford method, and 100 μg of the total protein was used for each reaction as a source of STS activity. […] E1S (4 × 10^4 Bq, 3 nM) and 20 mM Tris-HCl, pH 7.4. The volume of the reaction mixtures was adjusted to 100 μL with water. After incubation, 60 μL of each reaction mixture was collected, and the product formed by STS hydrolysis was extracted with toluene (0.5 mL). STS activity was measured using a MicroBeta radioluminometer (PerkinElmer). Assays were carried out in triplicate.

The format of series [3] is in vivo. To be noted: Table S1, MTD study, 50 mg/kg.
Protocol: The mice were thus weighed, and their general health was observed. […] At the end of the study, the mice were sacrificed by dislocation of the cervical vertebrae, and the internal organs were examined macroscopically.
The mice were weighed, and their general health was observed. […] At the end of the MTD study, the autopsy was performed, and the internal organs (liver, kidney, and spleen) were weighed and macroscopically assessed.
Series [4] can be described thus: blood morphology, blood biochemistry and organ weights of mice with 67NR tumor.
Protocol: At the end of the study, the autopsy of the animals was performed: blood was collected for further analyses of the morphology (Table S2, Supporting Information) and biochemistry (Table S3 and Figure S6, Supporting Information) and for the determination of the plasma estradiol level using the ELISA method.
Mice were injected orthotopically (in the mammary gland fat pad) with 67NR mouse mammary tumor cells derived from in vitro culture (1.5 × 10^5 cells/0.05 mL Hanks fluid/mouse). The growth of tumors has been observed. […] Animals were observed during the next 17 days and euthanized. During observation, body weight and tumor growth were monitored three times a week. The volume of the tumors was calculated according to the following formula: TV = a^2·b/2 [mm^3], (where: a—width and b—length of the tumor). Blood, tumor tissue, and liver were harvested during autopsy for further analyses. Blood aliquots (about 500 μL) were collected in EDTA containing vials for morphology analysis (Mythic 18 analyzer, Orphee), and then, the plasma was collected (centrifuged at 2500g for 15 min at 4 °C within 1 h after collection) for biochemical parameter analysis (Cobas c111, Roche).
The subject of series [5] is 67NR mouse mammary tumor cells. Kind of series: antitumor activity in 67NR orthotopic mouse breast carcinoma model. Format: in vivo, BALB/c mice. The following applies: 50 mg/kg b.w. per os. On the procedure:
The tumor volume (TV) and body weight were measured three times a week. Results for individual groups are reported in Figure S5, Supporting Information. Based on TV data, the tumor growth inhibition (TGI) was calculated for groups that received compounds and compared to that of the control group. […] The body weight of the treated animals was monitored during the study, and the body weight change (BWC) index was calculated (Figure 4). […] Body weight loss was observed between D2 and D11 and reached 4.5% at most.
The growth of tumors has been observed.

In the next series the test system is STS. The arrangement: method as in earlier work. To be noted: STS inhibitory effect, system not given; ref 14−16; cited from earlier work.
The mark [6] stands for this setting: Table S2, mice with 67NR tumor, 50 mg/kg.
Where [7] appears, read: Table S3, plasma, mice with 67NR tumor, 50 mg/kg per os, N=9.

The source of these data is paper PMC8958511, “Development of Sulfamoylated 4-(1-Phenyl-1H-1,2,3-triazol-4-yl)phenol Derivatives as Potent Steroid Sulfatase Inhibitors for Efficient Treatment of Breast Cancer” (Journal of Medicinal Chemistry, 2022).

Several values for one entry are separate records, joined by “and”; a condition that tells them apart may be missing. Identical values can stand only once. Like-named read-outs stand apart in the source and are kept apart here.

Protocol for STS in MCF-7 cells: All compounds were initially tested for their in cell inhibitory action at a 100 nM concentration.
The inhibitory potency of the synthesized compounds was examined in two ways, including an enzymatic assay and the radioisotope cellular test. […] The radioisotope cellular assay was performed using the MCF-7 cell line in the presence of radiolabeled [^3H]E1S.
The evaluation of the inhibitory effect of each compound with breast cancer cells was performed using a previously described method (27) with some modifications. MCF-7 cells were maintained in Dulbecco’s modified Eagle medium supplemented with 10% fetal bovine serum and cultured in the above medium until 80% confluence. […] After incubation, the medium (0.45 mL) was collected from each well, and the product formed by STS hydrolysis was extracted with toluene (4 mL). STS activity was measured using a MicroBeta radioluminometer (PerkinElmer). Assays with MCF-7 cells were carried out in triplicate.

In general, IC50 refers to the concentration that gives 50% inhibition. As to `NS(=O)(=O)Oc1ccc(-c2cn(-c3cc(F)cc(F)c3)nn2)cc1` [5l, 4-(1-(3,5-difluorophenyl)-1H-1,2,3-triazol-4-yl)phenyl sulfamate], the “residual STS activity [%]” value in series [1] (0.5 μM inhibitor concentration, substrate [3H]E1S, 3 nM, triplicate) was found to be 17.34 ± 0.87%. For the same compound, in series [1] (read-out: residual STS activity [%]), the remaining activity at 0.5 µM was determined as 17.3%. Further, the remaining activity at 0.001 µM at STS in MCF-7 cells (MCF7, 20 h, read-out: residual STS activity [%] 1 nM) was 13.6%. The remaining activity at 0.01 µM on STS in MCF-7 cells (MCF7, 20 h, read-out: residual STS activity [%] 10 nM) stood at 1%. Besides, on STS in MCF-7 cells (MCF7, 20 h, read-out: residual STS activity [%] 100 nM), the remaining activity at 0.1 µM was determined as 1%. For the same compound, at STS in MCF-7 cells (MCF-7 cells, substrate [3H]E1S, 3 nM), the 50% inhibitory concentration (IC50) was found to be 0.21 ± 0.01 nM. In addition, the “Residual STS activity [%] Liver” value in series [2] (liver tissue of mice treated per os at 50 mg/kg b.w.) is recorded as 10,1%. Moreover, in series [2] (tumor tissue of mice treated per os at 50 mg/kg b.w.), the “Residual STS activity [%] Tumor” value is 1,3%. In series [3], the GRAN is reported as 10,6±0,2%, the HCT is 42±1,9%, the HGB is listed as 15,4±0,5 g/dL and the LIMF was 86,6±0,2%. Moreover, in series [3], the MCH is reported as 17,3±0,1 pg, the MCHC was 36,6±0,4 g/dL, the MCV is 47,2±0,2 fL and the MON is 2,9±0,4%. For the same compound, in series [3], the PLT is recorded as 596±64 10x3/uL, the RBC is reported as 8,9±0,4 10x6/uL, the RDW is recorded as 17,3±0,2% and the WBC was 4,2±0,6 10x3/uL. The spleen weight result in series [4] (50 mg/kg b.w. per os, mice with 67NR tumor) is recorded as “Significantly smaller spleens weights”. Also, in series [4] (setting [6]), the HCT was 34,7±2,1%, the HGB is recorded as 13,3±0,8 g/dL, the MCH is on record as 17,8±0,3 pg and the MCHC was 38,3±0,4 g/dL. In series [4] (setting [6]), the MCV is on record as 46,4±0,7 fL, the PCT is 0,233±0,035%, the PDW is 29,3±4,6 fL and the PLT is reported as 463,1±74 x103/uL. Besides, in series [4] (setting [6]), the RBC is recorded as 7,5±0,5 x106/uL and the RDW is recorded as 18,4±1%. Besides, in series [4] (setting [7]), the creatinine is given as 5,6±1,65 umol/L and the urea was 8,1±0,7 mmol/L. Further, in series [5] (5 days a week, 67NR tumor, N = 9, vs control group), the “tumor growth inhibition (TGI)” value stood at 39%. Also, in series [5] (nine mice/group), the “mice responded to the treatment” value is listed as 8 mice, the “mice with much larger tumor than the mean control volume” value was determined as 1 mice and the “mice with tumor volume reduced by approx. 50% compared to the TV control” value is reported as 3 mice.
On to `NS(=O)(=O)Oc1ccc2c3c(c(=O)oc2c1)CCCCC3` [Irosustat, reference compound], for which, in the series with STS, the IC50 is 8 nM. For the same compound, on STS in MCF-7 cells (MCF-7 cells, 1 nM inhibitor, substrate [3H]E1S, 3 nM, triplicate), the “residual STS activity [%] 1 nM” value was 16.8% and 16.8 ± 0.5%. Further, the “residual STS activity [%] 10 nM” value on STS in MCF-7 cells (MCF-7 cells, 10 nM inhibitor, substrate [3H]E1S, 3 nM, triplicate) is 12.9% and 12.9 ± 0.77%. Further, the “residual STS activity [%] 100 nM” value at STS in MCF-7 cells (MCF-7 cells, 100 nM inhibitor, substrate [3H]E1S, 3 nM, triplicate) is 2.4% and 2.4 ± 0.07%.
